Calls of active or inactive are those of the source. No cut-off for these calls is given here.
Legend:
HCT-15 [1] = test: Cytotoxicity against human HCT15 cells at 30 uM after 48 hrs by MTT assay relative to control; type: functional
MDA-MB-231 [2] = test: Cytotoxicity against human MDA-MB-231 cells at 30 uM after 48 hrs by MTT assay relative to control; type: functional
HCT-15 [3] = test: Cytotoxicity against human HCT15 cells after 72 hrs by MTT assay; type: functional, cell-based; conditions: HCT-15, 72 h
A549 = test: Cytotoxicity against human A549 cells after 72 hrs by MTT assay; type: functional, cell-based; conditions: A549, 72 h
MDA-MB-231 [4] = test: Cytotoxicity against human MDA-MB-231 cells after 72 hrs by MTT assay; type: functional, cell-based; conditions: MDA-MB-231, 72 h
HeLa = test: Cytotoxicity against human HeLa cells after 72 hrs by MTT assay; type: functional, cell-based
NCI-H460 [5] = test: Induction of morphological changes in human NCI-H460 cells assessed as cell shrinkage after 72 hrs by phase contrast microscopic analysis; type: functional, cell-based
NCI-H460 [6] = test: Induction of apoptosis in human NCI-H460 cells assessed as reduction in cell number at 0.25 to 10 uM after 72 hrs by acridine orange/ethidium bromide staining based fluorescence microscopic analysis; type: functional
NCI-H460 [7] = test: Induction of apoptosis in human NCI-H460 cells assessed as chromatin condensation at 0.25 to 10 uM after 72 hrs by acridine orange/ethidium bromide staining based fluorescence microscopic analysis; type: functional, cell-based
NCI-H460 [8] = test: Induction of apoptosis in human NCI-H460 cells assessed as apoptotic body formation at 0.25 to 10 uM after 72 hrs by acridine orange/ethidium bromide staining based fluorescence microscopic analysis; type: functional, cell-based
NCI-H460 [9] = test: Induction of apoptosis in human NCI-H460 cells assessed as cell shrinkage at 0.25 to 10 uM after 72 hrs by acridine orange/ethidium bromide staining based fluorescence microscopic analysis; type: functional
NCI-H460 [10] = test: Induction of apoptosis in human NCI-H460 cells assessed as appearance of condensed nuclei at 0.25 to 10 uM after 72 hrs by DAPI staining based fluorescence microscopic analysis; type: functional, cell-based
NCI-H460 [11] = test: Induction of reactive oxygen species generation in human NCI-H460 cells after 24 hrs by DCFDA staining based fluorescence microscopic analysis; type: functional, cell-based
NCI-H460 [12] = test: Induction of mitochondrial membrane potential loss in human NCI-H460 cells assessed as increase in depolarized cell population after 72 hrs by JC1 staining based flow cytometry; type: functional
NCI-H460 [13] = test: Induction of mitochondrial membrane potential loss in human NCI-H460 cells assessed as depolarized cell population at 2.5 uM after 72 hrs by JC1 staining based flow cytometry (reference value: 11.63%); type: functional
NCI-H460 [14] = test: Induction of mitochondrial membrane potential loss in human NCI-H460 cells assessed as depolarized cell population at 10 uM after 72 hrs by JC1 staining based flow cytometry (reference value: 11.63%); type: functional
NCI-H460 [15] = test: Induction of apoptosis in human NCI-H460 cells assessed as viable cells at 1 uM after 72 hrs by Annexin V-alexa fluor 488/propidium iodide staining based flow cytometry (reference value: 98.55%); type: functional; conditions: NCI-H460, 72 h, read-out: Activity
NCI-H460 [16] = test: Induction of apoptosis in human NCI-H460 cells assessed as late apoptotic cells at 1 uM after 72 hrs by Annexin V-alexa fluor 488/propidium iodide staining based flow cytometry (reference value: 0.34%); type: functional
NCI-H460 [17] = test: Induction of apoptosis in human NCI-H460 cells assessed as necrotic cells at 1 uM after 72 hrs by Annexin V-alexa fluor 488/propidium iodide staining based flow cytometry (reference value: 0.34%); type: functional
NCI-H460 [18] = test: Induction of apoptosis in human NCI-H460 cells assessed as early apoptotic cells at 2.5 uM after 72 hrs by Annexin V-alexa fluor 488/propidium iodide staining based flow cytometry (reference value: 0.77%); type: functional
NCI-H460 [19] = test: Induction of apoptosis in human NCI-H460 cells assessed as necrotic cells at 2.5 uM after 72 hrs by Annexin V-alexa fluor 488/propidium iodide staining based flow cytometry (reference value: 0.34%); type: functional
NCI-H460 [20] = test: Induction of apoptosis in human NCI-H460 cells assessed as viable cells at 5 uM after 72 hrs by Annexin V-alexa fluor 488/propidium iodide staining based flow cytometry (reference value: 98.55%); type: functional; conditions: NCI-H460, 72 h, read-out: Activity
NCI-H460 [21] = test: Induction of apoptosis in human NCI-H460 cells assessed as early apoptotic cells at 5 uM after 72 hrs by Annexin V-alexa fluor 488/propidium iodide staining based flow cytometry (reference value: 0.77%); type: functional
NCI-H460 [22] = test: Induction of apoptosis in human NCI-H460 cells assessed as necrotic cells at 5 uM after 72 hrs by Annexin V-alexa fluor 488/propidium iodide staining based flow cytometry (reference value: 0.34%); type: functional
NCI-H460 [23] = test: Induction of apoptosis in human NCI-H460 cells assessed as viable cells at 10 uM after 72 hrs by Annexin V-alexa fluor 488/propidium iodide staining based flow cytometry (reference value: 98.55%); type: functional; conditions: NCI-H460, 72 h, read-out: Activity
NCI-H460 [24] = test: Induction of apoptosis in human NCI-H460 cells assessed as early apoptotic cells at 10 uM after 72 hrs by Annexin V-alexa fluor 488/propidium iodide staining based flow cytometry (reference value: 0.77%); type: functional
NCI-H460 [25] = test: Induction of apoptosis in human NCI-H460 cells assessed as late apoptotic cells at 10 uM after 72 hrs by Annexin V-alexa fluor 488/propidium iodide staining based flow cytometry (reference value: 0.34%); type: functional
NCI-H460 [26] = test: Cell cycle arrest in human NCI-H460 cells assessed as accumulation at sub-G1 phase at 1 uM after 24 hrs by propidium iodide staining based flow cytometry (reference value: 0.99%); type: functional
NCI-H460 [27] = test: Cell cycle arrest in human NCI-H460 cells assessed as accumulation at G2/M phase at 1 uM after 24 hrs by propidium iodide staining based flow cytometry (reference value: 35.49%); type: functional
NCI-H460 [28] = test: Cell cycle arrest in human NCI-H460 cells assessed as accumulation at sub-G1 phase at 2.5 uM after 24 hrs by propidium iodide staining based flow cytometry (reference value: 0.99%); type: functional
NCI-H460 [29] = test: Cell cycle arrest in human NCI-H460 cells assessed as accumulation at sub-G1 phase at 5 uM after 24 hrs by propidium iodide staining based flow cytometry (reference value: 0.99%); type: functional
NCI-H460 [30] = test: Cell cycle arrest in human NCI-H460 cells assessed as accumulation at G0/G1 phase at 5 uM after 24 hrs by propidium iodide staining based flow cytometry (reference value: 49.6%); type: functional
NCI-H460 [31] = test: Cell cycle arrest in human NCI-H460 cells assessed as accumulation at G2/M phase at 5 uM after 24 hrs by propidium iodide staining based flow cytometry (reference value: 35.49%); type: functional
NCI-H460 [32] = test: Cell cycle arrest in human NCI-H460 cells assessed as accumulation at sub-G1 phase at 10 uM after 24 hrs by propidium iodide staining based flow cytometry (reference value: 0.99%); type: functional
NCI-H460 [33] = test: Cell cycle arrest in human NCI-H460 cells assessed as accumulation at G0/G1 phase at 10 uM after 24 hrs by propidium iodide staining based flow cytometry (reference value: 49.6%); type: functional
NCI-H460 [34] = test: Cell cycle arrest in human NCI-H460 cells assessed as accumulation at G2/M phase at 10 uM after 24 hrs by propidium iodide staining based flow cytometry (reference value: 35.49%); type: functional

**Q.** For CCOC(=O)/C(=C(\N)C(=O)c1ccccc1)C1C(=O)N(C)c2ccc(F)cc21 (stereo unspecified), which Activity (HCT-15 [1]) is on record?
**A.** >50%

**Q.** What about the Activity (MDA-MB-231 [2]) of the same compound?
**A.** >50%

**Q.** And the IC50 (HCT-15 [3])?
**A.** 2.97 µM

**Q.** What about the IC50 (A549) of the same compound?
**A.** 3.51 µM

**Q.** What about the IC50 (MDA-MB-231 [4]) of the same compound?
**A.** 6.27 µM

**Q.** And the IC50 (HeLa)?
**A.** 2.99 µM

**Q.** What about the Activity (NCI-H460 [5]) of the same compound?
**A.** Dose-dependent effect

**Q.** What about the Activity (NCI-H460 [6]) of the same compound?
**A.** Active

**Q.** What about the Activity (NCI-H460 [7]) of the same compound?
**A.** Active

**Q.** And the Activity (NCI-H460 [8])?
**A.** Active

**Q.** And the Activity (NCI-H460 [9])?
**A.** Active

**Q.** What about the Activity (NCI-H460 [10]) of the same compound?
**A.** Active

**Q.** What about the Activity (NCI-H460 [11]) of the same compound?
**A.** Dose-dependent effect

**Q.** And the Activity (NCI-H460 [12])?
**A.** Dose-dependent effect

**Q.** And the Activity (NCI-H460 [13])?
**A.** 71.6%

**Q.** What about the Activity (NCI-H460 [14]) of the same compound?
**A.** 90.49%

**Q.** What about the viability at 1 µM (NCI-H460 [15]) of the same compound?
**A.** 87.9%

**Q.** What about the Activity (NCI-H460 [16]) of the same compound?
**A.** 3.15%

**Q.** And the Activity (NCI-H460 [17])?
**A.** 0.24%

**Q.** What about the Activity (NCI-H460 [18]) of the same compound?
**A.** 19.4%

**Q.** What about the Activity (NCI-H460 [19]) of the same compound?
**A.** 0.34%

**Q.** What about the viability at 5 µM (NCI-H460 [20]) of the same compound?
**A.** 61.1%

**Q.** And the Activity (NCI-H460 [21])?
**A.** 35.42%

**Q.** And the Activity (NCI-H460 [22])?
**A.** 0.21%

**Q.** And the viability at 10 µM (NCI-H460 [23])?
**A.** 40.4%

**Q.** And the Activity (NCI-H460 [24])?
**A.** 57.78%

**Q.** And the Activity (NCI-H460 [25])?
**A.** 1.78%

**Q.** And the Activity (NCI-H460 [26])?
**A.** 9.93%

**Q.** And the Activity (NCI-H460 [27])?
**A.** 61.59%

**Q.** And the Activity (NCI-H460 [28])?
**A.** 9.91%

**Q.** And the Activity (NCI-H460 [29])?
**A.** 11.94%

**Q.** What about the Activity (NCI-H460 [30]) of the same compound?
**A.** 11.17%

**Q.** And the Activity (NCI-H460 [31])?
**A.** 65.46%

**Q.** And the Activity (NCI-H460 [32])?
**A.** 11.66%

**Q.** And the Activity (NCI-H460 [33])?
**A.** 9.18%

**Q.** What about the Activity (NCI-H460 [34]) of the same compound?
**A.** 67.37%
